From ChEMBL document CHEMBL3351322, “Study the interactions between human serum albumin and two antifungal drugs: fluconazole and its analogue DTP” (Bioorg Med Chem Lett, 2014)

Experiments:
Type in all cases: ADME
[1] = target: T1, Albumin (Homo sapiens, UniProt P02768); experiment: Binding affinity to human serum albumin at 0.4 to 5.6 x 10' -5 M by UV-Vis spectroscopy; conditions: isolated protein
[2] = target: T1, Albumin; experiment: Ratio of binding constant for human serum albumin in presence of Ba2+ to binding constant for human serum albumin in absence of metal ions
[3] = target: T1, Albumin; experiment: Ratio of binding constant for human serum albumin in presence of Cr3+ to binding constant for human serum albumin in absence of metal ions
[4] = target: T1, Albumin; experiment: Ratio of binding constant for human serum albumin in presence of La3+ to binding constant for human serum albumin in absence of metal ions
[5] = target: T1, Albumin; experiment: Ratio of binding constant for human serum albumin in presence of Zn2+ to binding constant for human serum albumin in absence of metal ions
[6] = target: T1, Albumin; experiment: Ratio of binding constant for human serum albumin in presence of Co2+ to binding constant for human serum albumin in absence of metal ions
[7] = target: T1, Albumin; experiment: Ratio of binding constant for human serum albumin in presence of Fe3+ to binding constant for human serum albumin in absence of metal ions
[8] = target: T1, Albumin; experiment: Ratio of binding constant for human serum albumin in presence of Mn2+ to binding constant for human serum albumin in absence of metal ions
[9] = target: T1, Albumin; experiment: Ratio of binding constant for human serum albumin in presence of Cu2+ to binding constant for human serum albumin in absence of metal ions
[10] = target: T1, Albumin; experiment: Ratio of binding constant for human serum albumin in presence of Mg2+ to binding constant for human serum albumin in absence of metal ions
[11] = target: T1, Albumin; experiment: Ratio of binding constant for human serum albumin in presence of Ni2+ to binding constant for human serum albumin in absence of metal ions

T1 sequence (P02768 whole entry): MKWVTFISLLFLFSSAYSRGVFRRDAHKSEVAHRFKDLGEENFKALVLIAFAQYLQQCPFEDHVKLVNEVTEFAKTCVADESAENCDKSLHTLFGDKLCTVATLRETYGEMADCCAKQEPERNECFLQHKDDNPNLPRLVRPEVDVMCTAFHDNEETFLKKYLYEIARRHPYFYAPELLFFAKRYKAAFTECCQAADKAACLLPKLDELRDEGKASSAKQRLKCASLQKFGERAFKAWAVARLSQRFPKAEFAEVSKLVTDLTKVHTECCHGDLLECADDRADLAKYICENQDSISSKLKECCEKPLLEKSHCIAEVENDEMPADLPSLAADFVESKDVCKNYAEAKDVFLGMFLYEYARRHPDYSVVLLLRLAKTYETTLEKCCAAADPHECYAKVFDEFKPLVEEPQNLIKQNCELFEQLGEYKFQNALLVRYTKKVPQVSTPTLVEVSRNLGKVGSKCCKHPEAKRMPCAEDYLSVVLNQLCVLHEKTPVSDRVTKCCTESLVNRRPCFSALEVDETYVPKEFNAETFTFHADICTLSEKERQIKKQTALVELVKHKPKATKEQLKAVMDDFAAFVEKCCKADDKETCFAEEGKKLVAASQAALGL

SMILES | Activity [1] | Ratio [2] | Ratio [3] | Ratio [4] | Ratio [5] | Ratio [6] | Ratio [7] | Ratio [8] | Ratio [9] | Ratio [10] | Ratio [11]
OC(Cn1cncn1)(Cn1cncn1)c1ccc(Cl)cc1Cl | Active | – | – | – | – | – | – | – | – | – | –
OC(Cn1cncn1)(Cn1cncn1)c1ccc(F)cc1F [FLUCONAZOLE] | Active | 0.956 | 0.866 | 0.905 | 1.11 | 0.945 | 0.741 | 0.868 | 0.961 | 1.081 | 0.857
